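Results reflect a 48-hour exposure of cells in 96-well plates to compound at five concentrations. TGI: concentration producing complete growth inhibition.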
Tests used:
Assay in all cases: inhibition of tumour cell growth, NCI panel, 48 h
[1] = test system: RXF 393 renal
[2] = test system: MDA-MB-231 breast
[3] = test system: T-47D breast
[4] = test system: A498 renal
[5] = test system: SNB-75 CNS
[6] = test system: HT29 colon
[7] = test system: HCT-116 colon
[8] = test system: MDA-N
[9] = test system: TK-10 renal
[10] = test system: SR leukemia
[11] = test system: HCT-15 colon
[12] = test system: ACHN renal
[13] = test system: BT-549 breast
[14] = test system: OVCAR-4 ovarian
[15] = test system: SK-MEL-2 melanoma
[16] = test system: OVCAR-8 ovarian
[17] = test system: RPMI-8226 leukemia
[18] = test system: HOP-62 NSCLC
[19] = test system: 786-0 renal
[20] = test system: IGROV1 ovarian
[21] = test system: SW-620 colon
[22] = test system: HOP-92 NSCLC
[23] = test system: SK-MEL-5 melanoma
[24] = test system: OVCAR-5 ovarian
[25] = test system: U251 CNS
[26] = test system: MOLT-4 leukemia
[27] = test system: A549 NSCLC
[28] = test system: HS 578T breast
[29] = test system: MDA-MB-435
[30] = test system: NCI/ADR-RES ovarian
[31] = test system: LOX IMVI melanoma
[32] = test system: NCI-H460 lung
[33] = test system: KM12 colon
[34] = test system: M14 melanoma
[35] = test system: CAKI-1 renal
[36] = test system: SK-MEL-28 melanoma
[37] = test system: NCI-H226 lung
[38] = test system: OVCAR-3 ovarian
[39] = test system: PC-3 prostate
[40] = test system: SF-539 CNS
[41] = test system: SF-268 CNS
[42] = test system: NCI-H522 lung
[43] = test system: MCF7 breast
[44] = test system: UO-31 renal
[45] = test system: NCI-H23 lung
[46] = test system: K-562 leukemia
[47] = test system: UACC-257 melanoma
[48] = test system: HL-60(TB) leukemia
[49] = test system: SF-295 CNS
[50] = test system: EKVX NSCLC
[51] = test system: DU-145 prostate
[52] = test system: UACC-62 melanoma
[53] = test system: SN12C renal
[54] = test system: SNB-19 CNS
[55] = test system: COLO 205 colon
[56] = test system: HCC-2998 colon
[57] = test system: MALME-3M melanoma
[58] = test system: CCRF-CEM leukemia
[59] = test system: SK-OV-3 ovarian

Measured: TGI

CCc1nn(CN2CCOCC2)c(=S)n1/N=C/c1ccc(-c2ccc(Cl)cc2)o1
not listed: [52] | [53] | [54] | [55] | [56] | [57] | [58] | [59]
> 100 µM: all other assays above

CCCCn1c(N)c(-c2nc3ccccc3o2)sc1=S
43.1 µM: [37]
53.6 µM: [24]
98.8 µM: [4]
74.4 µM: [41]
75.2 µM: [13]
31.5 µM: [42]
31.9 µM: [52]
54.3 µM: [53]
78 µM: [6]
35.9 µM: [51]
23.3 µM: [12]
44.1 µM: [20]
34.9 µM: [23]
47.5 µM: [11]
81.8 µM: [50]
52.7 µM: [36]
19.9 µM: [14]
42.6 µM: [32]
77.6 µM: [28]
34.3 µM: [2]
29.8 µM: [27]
37.6 µM: [45]
40.2 µM: [57]
69.1 µM: [8]
39 µM: [44]
23.2 µM: [40]
39.9 µM: [18]
47.9 µM: [3]
33.9 µM: [38]
41 µM: [35]
40.8 µM: [59]
39.3 µM: [9]
67.4 µM: [17]
46.8 µM: [30]
24.6 µM: [7]
33 µM: [19] | [25]
38.5 µM: [29]
37.7 µM: [15] | [16]
28.9 µM: [49]
not listed: [5] | [21] | [31]
> 100 µM: all other assays above

Cc1cc(C)c(-n2[nH]c(=O)n(C)c2=O)c(C)c1
not listed: [12] | [18] | [22] | [49]
> 100 µM: all other assays above

Source: PubChem BioAssay (NCI)
